Experiments:
human M2 receptor [1] = biological target: T1, human M2 receptor (Homo sapiens, UniProt P08172); assay type: cell-based; conditions: shift in the acetylcholine dose-response curve (Allosteric EC50 shift, GraphPad PRISM); α >1 = positive cooperativity
T1 sequence (P08172 1-466): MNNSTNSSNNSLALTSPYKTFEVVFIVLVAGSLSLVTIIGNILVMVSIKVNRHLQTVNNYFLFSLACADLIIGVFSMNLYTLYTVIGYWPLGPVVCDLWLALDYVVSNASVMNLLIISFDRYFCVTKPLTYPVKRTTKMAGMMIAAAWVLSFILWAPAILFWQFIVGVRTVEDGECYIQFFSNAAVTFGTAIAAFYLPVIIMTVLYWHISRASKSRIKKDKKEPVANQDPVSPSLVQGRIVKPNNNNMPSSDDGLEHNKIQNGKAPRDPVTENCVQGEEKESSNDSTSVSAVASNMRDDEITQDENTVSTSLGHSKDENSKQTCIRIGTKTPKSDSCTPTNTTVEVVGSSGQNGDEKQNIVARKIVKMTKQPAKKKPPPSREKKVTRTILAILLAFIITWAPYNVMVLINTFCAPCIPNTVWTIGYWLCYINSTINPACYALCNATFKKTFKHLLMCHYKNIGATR

human M2 receptor [2] = biological target: T1, human M2 receptor; conditions: for EC50: Receptor activity EC50, M2-GIRK1/4 activation test, acetylcholine at EC20, allosteric potency, in some cases mean values from two or more determinations
Excerpt: Functional M2-GIRK1/4 Activation Test
The binding of orthosteric agonists (endogenous ligand: acetylcholine) to the M2 receptor leads to receptor activation or a change in conformation of the receptor in the manner of a shift in equilibrium in favour of the active receptor conformation.
The agonist-induced change in conformation of the M2 receptor results in a Gαi protein activation. […] Under physiological conditions, the result is then a selective efflux of potassium from the cell along the electrochemical gradient. […] The extent of hyperpolarization can therefore be regarded as a measure of the activation of the M2 receptor.
The test cell used is a recombinant CHO-DUKX cell line which has been stably transfected with cDNA coding for the human M2 receptor and with cDNA coding for both GIRK1/4 subunits (CHO-DUKX-M2-GIRK). The transmembrane potential, or the relative changes in the transmembrane potential as a function of substance addition or M2 activation, is determined by means of a voltage-sensitive dye (FLIPR Membrane Potential Assay Kit Blue, Molecular Devices # R8034) and the measurement of cell fluorescence using a proprietary fluorescence imaging instrument.
Determination of the Allosteric Potency of the Test Substances (EC50 Value)
The sowing medium consisted of MEM alpha medium (supplemented with 5% FCS, 2% Glutamax, no genticin).
For the particular measurement, the medium was removed and the cells were laden with the voltage-sensitive dye for at least 6 min at room temperature (30 μl of loading buffer per 384-well). This was followed, in a first measurement, by the determination of the fluorescence for the resting transmembrane potential for a period of 5 sec. Thereafter, 10 μl in each case of the test substances diluted in loading buffer were added, followed by a second measurement to determine the transmembrane potential for a period of 50 sec. Finally, the cells were admixed with 10 μl of agonist solution (acetylcholine dissolved in loading buffer). Acetylcholine was used at the concentration corresponding to the EC20, which had been determined in a preliminary test. The M2-mediated GIRK1/4 activation or hyperpolarization was then monitored in a third measurement over a period of 60 sec. The EC50 value (degree of allosteric potency of test compound) and the efficiency (measure of the boosting of the acetylcholine effect at an EC20 acetylcholine concentration) were determined with the aid of a 4-parameter logistic function (Hill function).

SMILES | Cooperativity (alpha factor) (human M2 receptor [1]) | EC50 (human M2 receptor [2]) [nM] | Emax (human M2 receptor [2]; read-out: Efficiency) [%]
O=C(NC(C(F)(F)F)C(F)(F)F)c1cn(-c2ccc(F)cc2F)c2nc(N3CC[C@H](F)C3)ccc2c1=O [Example 70, 1-(2,4-Difluorophenyl)-7-[(3S)-3-fluoropyrrolidin-1-yl]-N-(1,1,1,3,3,3-hexafluoropropan-2-yl)-4-oxo-1,4-dihydro-1,8-naphthyridine-3-carboxamide] | 29 | 76 | 
CCC(NC(=O)c1cn(-c2ccc(F)cc2F)c2nc(N3CC[C@H](F)C3)ccc2c1=O)C(F)(F)F (stereo partly drawn) [Example 71, 1-(2,4-Difluorophenyl)-7-[(3S)-3-fluoropyrrolidin-1-yl]-4-oxo-N-[1,1,1-trifluorobutan-2-yl]-1,4-dihydro-1,8-naphthyridine-3-carboxamide] | 30 | 39 | 
CC[C@H](NC(=O)c1cn(-c2ccc(F)cc2F)c2nc(NCCF)ccc2c1=O)C(F)(F)F [Example 87, 1-(2,4-Difluorophenyl)-7-[(2-fluoroethyl)amino]-4-oxo-N-[(2S)-1,1,1-trifluorobutan-2-yl]-1,4-dihydro-1,8-naphthyridine-3-carboxamide] | 26 | 129 | 
O=C(NC(C(F)(F)F)C(F)(F)F)c1cn(-c2ccc(F)cc2F)c2nc(NCCF)ccc2c1=O [Example 89, 1-(2,4-Difluorophenyl)-7-[(2-fluoroethyl)amino]-N-(1,1,1,3,3,3-hexafluoropropan-2-yl)-4-oxo-1,4-dihydro-1,8-naphthyridine-3-carboxamide] | 20 | 413 | 
O=C(NC12CC3CC(CC(C3)C1)C2)c1cn(-c2ccc(F)cc2F)c2nc(NCC(F)(F)F)ccc2c1=O [Example 90, 1-(2,4-Difluorophenyl)-4-oxo-N-(tricyclo[3.3.1.1^3,7]dec-1-yl)-7-[(2,2,2-trifluoroethyl)amino]-1,4-dihydro-1,8-naphthyridine-3-carboxamide] | 11 | 298 | 
CC(NC(=O)c1cn(-c2ccc(F)cc2F)c2nc(NCC(F)(F)F)ccc2c1=O)C(F)(F)F (stereo not drawn) [Example 93, 1-(2,4-Difluorophenyl)-4-oxo-7-[(2,2,2-trifluoroethyl)amino]-N-[1,1,1-trifluoropropan-2-yl]-1,4-dihydro-1,8-naphthyridine-3-carboxamide] | 8 | 213 | 
O=C(NC12CCC(F)(CC1)CC2)c1cn(-c2ccc(F)cc2F)c2nc(NCC(F)(F)F)ccc2c1=O [Example 97, 1-(2,4-Difluorophenyl)-N-(4-fluorobicyclo[2.2.2]oct-1-yl)-4-oxo-7-[(2,2,2-trifluoroethyl)amino]-1,4-dihydro-1,8-naphthyridine-3-carboxamide] | 9 | 209 | 
CC12CCC(NC(=O)c3cn(-c4ccc(F)cc4F)c4nc(NCC(F)(F)F)ccc4c3=O)(CC1)CC2 [Example 98, 1-(2,4-Difluorophenyl)-N-(4-methylbicyclo[2.2.2]oct-1-yl)-4-oxo-7-[(2,2,2-trifluoroethyl)amino]-1,4-dihydro-1,8-naphthyridine-3-carboxamide] | 14 | 61 | 
CN(CCF)c1ccc2c(=O)c(C(=O)NC(C(F)(F)F)C(F)(F)F)cn(-c3ccc(F)cc3F)c2n1 [Example 111, 1-(2,4-Difluorophenyl)-7-[(2-fluoroethyl)(methyl)amino]-N-(1,1,1,3,3,3-hexafluoropropan-2-yl)-4-oxo-1,4-dihydro-1,8-naphthyridine-3-carboxamide] | 26 | 35 | 
CC[C@@H](NC(=O)c1cn(-c2ccc(F)cc2F)c2nc(NCC(F)F)ccc2c1=O)C(F)(F)F [Example 123, 7-[(2,2-Difluoroethyl)amino]-1-(2,4-difluorophenyl)-4-oxo-N-[(2R)-1,1,1-trifluorobutan-2-yl]-1,4-dihydro-1,8-naphthyridine-3-carboxamide] | 14 | 115 | 
O=C(NC12CC3CC(CC(C3)C1)C2)c1cn(-c2ccc(F)cc2F)c2nc(N3CCOC3=O)ccc2c1=O [Example 128, 1-(2,4-Difluorophenyl)-4-oxo-7-(2-oxo-1,3-oxazolidin-3-yl)-N-(tricyclo[3.3.1.1^3,7]dec-1-yl)-1,4-dihydro-1,8-naphthyridine-3-carboxamide] | 18 | 57 | 
O=C(Nc1c(Cl)cccc1Cl)c1cn(-c2ccc(F)cc2F)c2nc(NCC(F)(F)F)ccc2c1=O [Example 163, N-(2,6-Dichlorophenyl)-1-(2,4-difluorophenyl)-4-oxo-7-[(2,2,2-trifluoroethyl)amino]-1,4-dihydro-1,8-naphthyridine-3-carboxamide] | 13 | 173 | 
COC(=O)N1CCN(c2ccc3c(=O)c(C(=O)Nc4c(Cl)cccc4Cl)cn(-c4ccc(F)cc4F)c3n2)CC1 [Example 164, Methyl 4-{6-[(2,6-dichlorophenyl)carbamoyl]-8-(2,4-difluorophenyl)-5-oxo-5,8-dihydro-1,8-naphthyridin-2-yl}piperazine-1-carboxylate] | 21 | 31 | 
O=C(NC12CC3CC(CC(C3)C1)C2)c1cn(-c2ccc(F)cc2F)c2nc(N3CCC3=O)ccc2c1=O [Example 168] | 13 | 60 | 
CCC(NC(=O)c1cn(-c2ccc(F)cc2F)c2nc(N3C[C@@H](O)CC3=O)ccc2c1=O)C(F)(F)F (stereo partly drawn) [Example 176] | 28 | 95 | 94.1
CCC(NC(=O)c1cn(-c2ccc(F)cc2F)c2nc(N3CCCC3=O)ccc2c1=O)C(F)(F)F (stereo not drawn) [Example 177] | 5 | 138 | 
CC12CCC(NC(=O)c3cn(-c4ccc(F)cc4F)c4nc(N5CC(O)CC5=O)ccc4c3=O)(CC1)CC2 (stereo not drawn) [Example 181] | 36 | 59 | 
O=C(NC12CC3CC(CC(C3)C1)C2)c1cn(-c2ccc(F)cc2F)c2nc(N3CC(F)CC3=O)ccc2c1=O (stereo not drawn) [Example 187, 1-(2,4-Difluorophenyl)-7-[4-fluoro-2-oxopyrrolidin-1-yl]-4-oxo-N-(tricyclo[3.3.1.1^3,7]dec-1-yl)-1,4-dihydro-1,8-naphthyridine-3-carboxamide] | 10 | 98 | 
CC(C)(NC(=O)c1cn(-c2ccc(F)cc2F)c2nc(N3CC[C@@H](OC(F)F)C3)ccc2c1=O)c1c(F)cccc1F [Example 188, 7-[(3R)-3-(Difluoromethoxy)pyrrolidin-1-yl]-1-(2,4-difluorophenyl)-N-[2-(2,6-difluorophenyl)propan-2-yl]-4-oxo-1,4-dihydro-1,8-naphthyridine-3-carboxamide] | 9 | 113 | 
CC[C@@H](NC(=O)c1cn(-c2ccc(F)cc2F)c2nc(N3C[C@@H]4C(COC)[C@@H]4C3)ccc2c1=O)C(F)(F)F (stereo partly drawn) [Example 190, 1-(2,4-Difluorophenyl)-7-[(1R,5S)-6-(methoxymethyl)-3-azabicyclo[3.1.0]hex-3-yl]-4-oxo-N-[(2R)-1,1,1-trifluorobutan-2-yl]-1,4-dihydro-1,8-naphthyridine-3-carboxamide] | 12 | 46 | 
CC[C@@H](NC(=O)c1cn(-c2ccc(F)cc2F)c2nc(N3CCCC3)ccc2c1=O)C(F)(F)F [Example 192, 1-(2,4-Difluorophenyl)-4-oxo-7-(pyrrolidin-1-yl)-N-[(2R)-1,1,1-trifluorobutan-2-yl]-1,4-dihydro-1,8-naphthyridine-3-carboxamide] | 9 | 54 | 
CC[C@@H](NC(=O)c1cn(-c2ccc(F)cc2F)c2nc(N3C[C@@H](OC)CC3=O)ccc2c1=O)C(F)(F)F [Example 193, 1-(2,4-Difluorophenyl)-7-[(4S)-4-methoxy-2-oxopyrrolidin-1-yl]-4-oxo-N-[(2R)-1,1,1-trifluorobutan-2-yl]-1,4-dihydro-1,8-naphthyridine-3-carboxamide] | 50 | 36 | 
O=C(Nc1c(Cl)cccc1Cl)c1cn(-c2ccc(F)cc2F)c2nc(N3CC[C@H](O)C3=O)ccc2c1=O [Example 202, N-(2,6-Dichlorophenyl)-1-(2,4-difluorophenyl)-7-[(3S)-3-hydroxy-2-oxopyrrolidin-1-yl]-4-oxo-1,4-dihydro-1,8-naphthyridine-3-carboxamide] | 18 | 89 | 
CC[C@H](NC(=O)c1cn(-c2ccccc2F)c2nc(N(C)C)ccc2c1=O)C(F)(F)F [Example 203, 7-(Dimethylamino)-1-(2-fluorophenyl)-4-oxo-N-[(2S)-1,1,1-trifluorobutan-2-yl]-1,4-dihydro-1,8-naphthyridine-3-carboxamide] | 8 | 62 | 
CC[C@@H](NC(=O)c1cn(-c2ccc(F)cc2F)c2nc(N3CCC3=O)ccc2c1=O)C(F)(F)F [Example 205, 1-(2,4-Difluorophenyl)-4-oxo-7-(2-oxoazetidin-1-yl)-N-[(2R)-1,1,1-trifluorobutan-2-yl]-1,4-dihydro-1,8-naphthyridine-3-carboxamide] | 4 | 105 | 

Source: patent US20190367516A1 (Bayer Pharma Aktiengesellschaft, priority 2015, published 2019)
